Converted amounts (≈) assume the structure as drawn. Like-named read-outs stand apart in the source and are kept apart here.

One test concerns Aeromonas salmonicida. Put plainly: MIC determination in broth, 96 well plates (OD600 and plating). The test is classed as cell-based. The note with it: Aeromonas salmonicida (furunculosis), (TSA/TSB)/20° C.
The next test deals with Streptococcus agalactiae. Described as above. The note with it: Streptococcus agalactiae (streptococcosis), (TSAY/TSBY)/28° C. The test is classed as cell-based.
The test system of a further test is Streptococcus iniae. Described as above. The format is cell-based. The settings on record: Streptococcus iniae (streptococcosis), (TSAY/TSBY)/28° C.
The subject of a further test is Tenacibaculum maritimum. The test is described as above. The test is classed as cell-based. The settings on record: Tenacibaculum maritimum (tenacibaculosis), (MA/MB)/15° C.
A further test concerns Saprolegnia parasitica. Put plainly: Minimum lethal concentration (MLC) determination. The format is cell-based. The settings on record: Saprolegnia parasitica (saprolegniasis); GY/20° C.; in triplicate.
The next test concerns Vibrio parahaemolyticus. Put plainly: MIC determination in broth, 96 well plates (OD600 and plating).

As to `CSC1=C(C)C(=O)C(=O)NC1=O` [RejuAgro A], the MIC (commonly the smallest concentration in the dilution series that meets the test's criterion for growth inhibition) with Aeromonas salmonicida is 1.56 µg/mL (≈ 8.42 µM); in the test on Aeromonas salmonicida (read-out: MIC) it was 1.56 µg/mL (≈ 8.42 µM); against Streptococcus agalactiae it was 1.56 µg/mL (≈ 8.42 µM); in the test with Streptococcus agalactiae (read-out: MIC), 1.56 µg/mL (≈ 8.42 µM); in the test on Streptococcus iniae, 3.13 µg/mL (≈ 16.9 µM); in the test on Streptococcus iniae (read-out: MIC), 3.13 µg/mL (≈ 16.9 µM). The MIC worked out at 12.5 µg/mL (≈ 67.5 µM) in the test with Tenacibaculum maritimum; 12.5 µg/mL (≈ 67.5 µM) with Tenacibaculum maritimum (read-out: MIC); 0.39 µg/mL (≈ 2.11 µM) with Vibrio parahaemolyticus (Vibrio parahaemolyticus); 0.39 µg/mL (≈ 2.11 µM) in the test with Vibrio parahaemolyticus (Vibrio parahaemolyticus (vibriosis, acute hepatopancreatic necrosis disease), (TSA2/TSB2)/37° C.). In addition, in the test on Saprolegnia parasitica, the “MLC (minimum lethal concentration)” value is 100 µg/mL (≈ 540 µM).
